Source: PMC4741889, “Ligand-based chemoinformatic discovery of a novel small molecule inhibitor targeting CDC25 dual specificity phosphatases and displaying in vitro efficacy against melanoma cells” (Oncotarget, 2015)

Target: T1, CDC25B (Homo sapiens, UniProt P30305)
T1 construct: Recombinant forms of the catalytic domains of CDC25A, -B and -C were obtained through the vectors pET28a-CDC25A-cd, pET28a-CDC25B-cd and pET28a-CDC25C-cd; made in house
T1 sequence (P30305 431-538 limits assumed): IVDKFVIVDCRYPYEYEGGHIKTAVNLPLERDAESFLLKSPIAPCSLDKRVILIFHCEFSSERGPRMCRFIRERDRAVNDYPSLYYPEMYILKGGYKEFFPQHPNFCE
Assay: Residual phosphatase activity of recombinant CDC25B, fluorimetric OMFP assay
Type: biochemical
Settings: for remaining activity at 0.2 µM: 0.2 μM inhibitor; for remaining activity at 0.2 µM / remaining activity at 1 µM: 10 nM CDC25B, 25 μM OMFP, read-out: CDC25B residual activity (%) in the presence of [inhibitor]; for remaining activity at 1 µM: 1 μM inhibitor; for inhibition of the CDC25B phosphatase activity (in words): two inhibitor concentrations, 0.2 and 1 μM
Description: Among the twenty-five structures identified from the multiple ligand-based chemoinformatic approach, eight compounds (2, 10, 12–14, and 16–18) were excluded from the analysis, because endowed with a strong fluorescent signal, which interfered with the emission wavelength of the synthetic substrate 3-O-methylfluorescein phosphate (OMFP) used in the fluorimetric assay. The inhibition of the phosphatase activity of CDC25B by the remaining seventeen analogs was evaluated in the presence of two different concentrations of these compounds (Table 2). […] For this reason, only one of these latter compounds, i.e. 3, was included in the following analysis.
The enzymatic activity of the catalytic domains of CDC25A, -B and -C were determined through a fluorimetric method, which monitored the dephosphorylation of the synthetic substrate OMFP, essentially as previously described. In steady-state enzyme kinetic studies, the residual phosphatase activity of purified recombinant CDC25B was measured at 30°C in the presence of different concentrations of the various inhibitors, using a computer-assisted Cary Eclipse spectrofluorimeter (Varian) equipped with an electronic temperature controller. Excitation and emission wavelengths were set at 485 and 530 nm, respectively; both excitation and emission slits were set at 10 nm. The reaction mixture contained 10 nM CDC25B and different concentrations of the various inhibitors in 500 μL final volume of 20 mM Tris-HCl, pH 7.8, 1 mM DTT. DMSO was used as vehicle control. The reaction started by the addition of 25 μM OMFP, and the formation of the fluorescent product o-methylfluorescein was monitored continuously. The rate of OMFP hydrolysis was expressed as arbitrary units per min (a.u./min). The comparison of the rates determined in the absence and in the presence of the various inhibitors allowed the calculation of the residual phosphatase activity, expressed as a percentage.

Structure (SMILES) | remaining activity at 0.2 µM | remaining activity at 1 µM | inhibition of the CDC25B phosphatase activity (in words)
O=C(O)c1ccccc1-c1c2cc([N+](=O)[O-])c(=O)c(Br)c-2oc2c(Br)c(O)c([N+](=O)[O-])cc12 [Compound 19] | 86% | 70% | measurable inhibition of the phosphatase activity, only when added at the highest concentration
O=C(O)CCc1c2ccc(=O)cc-2oc2cc(O)ccc12 [Compound 4] | 90% | 28% | measurable inhibition of the phosphatase activity, only when added at the highest concentration

Now from value to compound, other results behind:

remaining activity at 0.2 µM | remaining activity at 1 µM | Structure (SMILES) | inhibition of the CDC25B phosphatase activity (in words)
80% | 0% | CN(C)c1ccc(-c2c3cc(O)c(=O)cc-3oc3cc(O)c(O)cc23)cc1 [Compound 22] | measurable inhibition of the phosphatase activity, only when added at the highest concentration
91% | 24% | O=c1ccc2c(-c3ccccc3S(=O)(=O)O)c3ccc(O)c(O)c3oc-2c1O [Compound 20] | measurable inhibition of the phosphatase activity, only when added at the highest concentration
79% | 18% | O=C(O)c1ccccc1-c1c2cc(I)c(=O)c(I)c-2oc2c(I)c(O)c(I)cc12 [Compound 15] | measurable inhibition of the phosphatase activity, only when added at the highest concentration
76% | 9% | Cc1c2ccc(=O)cc-2oc2cc(O)ccc12 [Compound 1] | measurable inhibition of the phosphatase activity, only when added at the highest concentration
